# Patent US10512691B2, “Systems and methods for targeted imaging and ablation of cardiac cells” (THE REGENTS OF THE UNIVERSITY OF MICHIGAN, priority 2012, dated 2019)
# Read-outs that look alike come from different tables or passages of the source. Peptide text beside a SMILES is read from it.
# What was measured:
# [1] = known, when injected in blood; cited from earlier work
# [2] = In vivo blood stability of photosensitizer; details: action of blood reducing enzymes
# From the text: In vivo testing as described above was repeated with an improved CTP-Ce6-8-arm-PEG platform as described above.
# cardiac tissue [3] = assay: CTP transduction of cardiac tissue after peripheral intravenous injection; type: in vivo; details: 15 minutes post-peripheral intravenous injection in mice
# From the text: In some embodiments, nanoparticles comprise cardiac targeting moieties. In some embodiments, targeting moieties target myocytes. In some embodiments, the cardiac targeting moiety is cardiac targeting peptide (CTP) (Zahid et al., PloS one 2010; 5:e12252, herein incorporated by reference in its entirety). This peptide has the sequence […] (SEQ ID NO:1). In some embodiments, variants (e.g., sequence variants) of cardiac targeting peptide that retain the ability to specifically bind to myocytes are utilized. […] Thus, CTP is specific to the heart and cell type specific to myocytes. CTP also works in rat, and sheep and human (Zahid, et. al, supra).
# cardiac tissue [4] = details: contemplated, citing Zahid et al.; cited from earlier work
compound,measurement,setting,value
chlorin e6 [Ce6],stability in blood in vivo,[1],remain stable when injected in blood
CN(C)c1ccc2nc3ccc(=[N+](C)C)cc-3sc2c1 [methylene blue],stability in blood in vivo,[2],decreased in vivo
CC(C)C[C@H](NC(=O)[C@H](Cc1c[nH]cn1)NC(=O)[C@H](Cc1c[nH]c2ccccc12)NC(=O)[C@@H]1CCCN1C(=O)[C@H](C)N)C(=O)N[C@@H](CO)C(=O)N[C@@H](CO)C(=O)N[C@@H](CCC(N)=O)C(=O)N[C@@H](Cc1ccc(O)cc1)C(=O)N[C@@H](CO)C(=O)N[C@@H](CCCNC(=N)N)C(=O)N[C@H](C(=O)O)[C@@H](C)O [CTP] (H-APWHLSSQYSRT-OH; N-terminus and C-terminus assumed),transduction of cardiac tissue,cardiac tissue [3],efficiently and specifically transduce cardiac tissue
same,uptake in other organs,cardiac tissue [3],"No other organ showed uptake except kidney glomeruli, limited to the cortex, and rare lung capillaries"
same,time for CTP to reach the heart,cardiac tissue [4],approximately 15 minutes
